# According to patent US20260174780A1, “BISMUTH-THIOL COMPOSITIONS AND METHODS FOR TREATING INFLAMMATORY DISEASES” (Microbion Corporation, priority 2022, published 2026):
# “Also recorded” adds a separate entry of the source. Read-outs that look alike come from different tables or passages of the source.
# Legend:
# [1] = Particle size by Nanosizer/Zetasizer Nano-S (volumetric mean diameter); format: physicochemical; conditions: resuspended in 2% Pluronic F-68, sonicated; two measurements
# Experimental: The dried particulate matter was characterized to assess the particle size properties. Briefly, particles were resuspended in 2% Pluronic® F-68 (BASF, Mt. Olive, NJ) and the suspension was sonicated for 10 minutes in a water bath sonicator at standard setting prior to analysis using a Nanosizer/Zetasizer Nano-S particle analyzer (model ZEN1600 (without zeta-potential measuring capacity), Malvern Instruments, Worcestershire, UK) according to the manufacturer's recommendations.
# neutrophils = test: In vitro model of neutrophil recruitment to the lung (transmigration, supernatant and conditioned media cytokines); format: cell-based, human; conditions: for viability of the cells: CF-conditioned media and normal media (LTB4); for neutrophil transmigration / recruitment: CF-conditioned media and LTB4
# Source text: FIG. 6 provides a description of the assay for in vitro modeling of neutrophil recruitment to the lung.
# FIG. 7 provides a summary of the process for comparing cellular and soluble inflammatory markers in vitro.
# The neutrophils used are primary cells harvested from normal healthy volunteers immediately prior to the study. Cellular and soluble inflammatory markers were compared in vitro as described in FIG. 7.
# AIM2 inflammasome = test: qPCR of AIM2 in BEAS-2B cells; format: cell-based, human; conditions: 0.5-4 μg/mL, 24 hours
# Experimental: (§1) Protocol: BEAS-2B cells were grown in tissue culture flasks and a 24-well plate was seeded with 2×10^5 cells/well and incubated at 37° C. and 5% CO2 for 48 hours. Select wells were treated with either 4 μg/mL, 2 μg/mL, 1 μg/mL, or 0.5 μg/mL BisEDT or left untreated as a control and incubated at 37° C. and 5% CO2 for 24 hours. Cell culture supernatant was collected from each well and stored at −20° C. until further ELISA analysis. On the day of the ELISA assays to determine the expression of each cytokine, cell culture supernatant was thawed, and the assays performed following the manufacturer's instructions. Cells were collected for RNA isolation using Qiagen RNeasy kit using manufacturers' instructions. Briefly, genomic DNA was degraded with DNase (Roche) and samples were incubated at 37° C. for 1 hour followed by 3 μL DNase inactivation reagent (Invitrogen) incubated at 37° C. for 2 minutes. Samples were centrifuged at maximum speed for 5 minutes to remove the inactivation reagent. RNA concentration and quality was evaluated using a Nanodrop. RNA samples were utilized to generate cDNA using cDNA synthesis kit (Bio-Rad). qPCR for AIM2 and actin (housekeeping gene) was conducted using SYBR green kit (Bio-Rad) along with standards.
# HUVEC cells = test: Cytokine ELISA in HUVEC cells; format: cell-based, human; conditions: 0.5, 1, 2 or 4 μg/mL, 24 hours, compared to untreated cells
# Experimental: as §1, with “HUVEC” for “BEAS-2B”, “manufacturer's” for “manufacturers'”, “standard.” for “standards.”
# [2] = Earlier 28-day tolerability work in rats; conditions: 28 days
smiles,measurement,setting,value
"C1C[S][Bi]([S]CC[S][Bi]2[S]CC[S]2)[S]1 [BisEDT, 1,2-(Bis(1,3-dithia-2-bismolane)thio)ethane]",peak VMD,[1],about 1.3 microns
same,activity of caspase-1 (FLICA),neutrophils,slightly reduced
same,IL-18 level in transmigration supernatant,"neutrophils; 6 hours, compared to vehicle",appreciably lower level
same,viability of the cells,neutrophils,very high level of viability
same,viability of the cells,neutrophils; listed as pravibismane,no effect on cell viability
same,IL-18 in conditioned media,neutrophils; compared to vehicle,down-regulated
same,neutrophil transmigration / recruitment,neutrophils; compared to vehicle,lower level of neutrophil transmigration; also recorded: inhibits neutrophil recruitment
same,neutrophil transmigration / recruitment,"neutrophils; compared to vehicle, listed as pravibismane",reduced transmigration efficiency
same,IL-6 in conditioned media,neutrophils; conditioned media,Very minor changes
same,expression of VEGF,neutrophils; conditioned media,small increase
same,interferon-gamma in conditioned media,neutrophils; conditioned media,Very minor changes
same,activity of caspase-1 (FLICA),neutrophils; listed as pravibismane,slight reduction
same,IL-10 secretion,neutrophils; summary,substantially increased
same,CCL4 (macrophage inflammatory protein),"neutrophils; transmigration supernatant, 6-hour time point",reduced
same,AIM2 inflammasome expression (AIM2/Actin copy number),AIM2 inflammasome,inhibit AIM2 inflammasome expression
same,expression of IL-18,HUVEC cells,Consistent reduction
same,expression of TNF-α,HUVEC cells,Consistent reduction
same,dose highly tolerated without adverse effects,[2],59 µg/kg/day
